Where no end group is shown, it is not given here.
How the values were obtained:
[1] = tested on: S. bovis JB1; experiment: Culture growth upon treatment with 100 nM antibiotic; type: cell-based, Streptococcus bovis; parameters: key to Inhibition By (S. bovis JB1): “−” indicates not inhibited; “+” indicates mildly inhibited; “++” indicates inhibited
Method: (§1) Other streptococcal species have similar dose-dependent growth inhibitory responses to tryglysins. WGK peptides inhibit growth of several streptococcal species, but not E. faecalis or L. lactis. We extended the evaluation of tryglysin inhibitory activity to other bacterial species. Culture growth rates of several Gram-positive species were evaluated upon treatment with 100 nM each antibiotic. Most susceptible to treatments, with complete growth inhibition at only 100 nM tryglysins, were strains of S. mitis, S. oralis, and S. pneumoniae, each being members of the mitis group. […] Unaffected were cultures of S. pyogenes, Lactococcus lactis, and Enterococcus faecalis (FIG. S4A to F).
(§2) It can also be seen that the disclosed peptides inhibit growth of several streptococcal species, but not others outside of streptococcal species, such as E. faecalis or L. lactis.
(§3) Specifically, bacterial strains were grown from prestored glycerol stocks at −80° C. and inoculated into THY broth. Strains were incubated overnight at 37° C. in an atmosphere of 5% CO2, and the next morning, they were washed and resuspended in fresh, prewarmed CDM as described above in Example 4.

[2] = tested on: S. pneumoniae D39; experiment: as above; type: cell-based, Streptococcus pneumoniae; parameters: key: “−” indicates not inhibited; “+” indicates mildly inhibited; “++” indicates inhibited
Method: as §1, §2, §3

[3] = tested on: S. mutans; experiment: Dose-dependent growth inhibition of cultures with tryglysin titrations over 9 hours; type: cell-based, Streptococcus mutans
Method: (§4) Growth inhibition of S. mutans and S. ferus cultures was tested with titrations of both tryglysin A and B over a period of 9 hours.
Referring to FIG. 3A, the dose-dependent growth inhibition of S. mutans by Triglysin A can be seen. Cultures exposed to no tryglysin A 301, 10 nM tryglysin A 302, 100 nM tryglysin A 303, and 1 μM tryglysin A 304 can be seen.
Referring to FIG. 3C, the dose-dependent growth inhibition of S. mutans by Triglysin B can be seen. Cultures exposed to no tryglysin B 321, 10 nM tryglysin B 322, 100 nM tryglysin B 323, and 1 μM tryglysin B 324 can be seen.

[4] = tested on: S. pyogenes NZ131; experiment: Culture growth upon treatment with 100 nM antibiotic; type: cell-based, Streptococcus pyogenes; parameters: key: “−” indicates not inhibited; “+” indicates mildly inhibited; “++” indicates inhibited
Method: as §1, §2, §3

[5] = tested on: S. oralis 108; experiment: as above; type: cell-based, Streptococcus oralis; parameters: key: “−” indicates not inhibited; “+” indicates mildly inhibited; “++” indicates inhibited
Method: as §1, §2, §3

[6] = tested on: E. faecalis V583; experiment: as above; type: cell-based, Enterococcus faecalis; parameters: key: “−” indicates not inhibited; “+” indicates mildly inhibited; “++” indicates inhibited
Method: as §1, §2, §3

[7] = tested on: L. lactis ATCC 11454; experiment: as above; type: cell-based, Lactococcus lactis; parameters: key: “−” indicates not inhibited; “+” indicates mildly inhibited; “++” indicates inhibited
Method: as §1, §2, §3

[8] = tested on: S. mutans UA159; experiment: as above; type: cell-based, Streptococcus mutans; parameters: key: “−” indicates not inhibited; “+” indicates mildly inhibited; “++” indicates inhibited
Method: as §1, §2, §3

[9] = tested on: S. mitis CCUG 31611; experiment: as above; type: cell-based, Streptococcus mitis; parameters: key: “−” indicates not inhibited; “+” indicates mildly inhibited; “++” indicates inhibited
Method: as §1, §2, §3

[10] = tested on: S. ferus DSM 20646; experiment: as above; type: cell-based, Streptococcus ferus; parameters: key: “−” indicates not inhibited; “+” indicates mildly inhibited; “++” indicates inhibited
Method: as §1, §2, §3

[11] = tested on: S. agalactiae A909; experiment: as above; type: cell-based, Streptococcus agalactiae; parameters: key to Inhibition By (S. agalactiae A909): “−” indicates not inhibited; “+” indicates mildly inhibited; “++” indicates inhibited
Method: as §1, §2, §3

[12] = tested on: S. ferus; experiment: Dose-dependent growth inhibition of cultures with tryglysin titrations over 9 hours; type: cell-based, Streptococcus ferus; conditions: 9-h growth assay
Method: as §4
Referring to FIG. 3B, the dose-dependent growth inhibition of S. ferus by Triglysin A can be seen. Cultures exposed to no tryglysin A 311, 10 nM tryglysin A 312, and 100 nM tryglysin A 313 can be seen.
Referring to FIG. 3D, the dose-dependent growth inhibition of S. ferus by Triglysin B can be seen. Cultures exposed to no tryglysin B 331, 10 nM tryglysin B 332, and 100 nM tryglysin B 333 can be seen.

[13] = tested on: S. mutans; experiment: Morphological changes (cell chaining) by microscopy after tryglysin treatment; type: cell-based, Streptococcus mutans; conditions: 100 nM
Method: FIG. 4 is a graph showing the quantification of chains greater than three cells in length for S. mutans exposed to 100 nM tryglysin A for 2 h, 5 h, or 7 h. A minimum of 100 cells were observed per condition and time point. −, no tryglysin A; +, 100 nM tryglysin A. **, P<0.01; ns, not significant by one-way ANOVA with Dunnet's multiple comparison posttest.
The impact of tryglysins on gross morphological changes to cell shape was examined at 2, 5, and 7 h after treatment with 100 nM tryglysin A or B by microscopy.
Prestored glycerol stocks of S. mutans strains at −80° C. were inoculated into THY broth and incubated overnight at 37° C. in an atmosphere of 5% CO2. CDM was prepared and prewarmed at 37° C. in an atmosphere of 5% CO2 overnight. The next morning, strains were transferred to sterile 15-ml conical tubes and centrifuged at room temperature at 4,000×g for 10 min. Strains were resuspended in 1 ml prewarmed CDM, transferred to microcentrifuge tubes, and centrifuged again at room temperature at 14,000×g for 5 min. Supernatant was discarded, and strains were resuspended in 1 ml fresh prewarmed CDM. Resuspended strains were then inoculated into 6 ml prewarmed CDM at 1:200 dilution. At each time point, strains were monitored by measuring OD600 with a GENESYS 30 Vis spectrophotometer (Thermo-Fisher)
If required, at 1 h postinoculation, 100 nM tryglysin A or B was added to the media. For microscopic analysis of samples, 2 ml of live cells was taken at 2 h, 5 h, and 7 h after the addition of tryglysins and examined using an Olympus CKX53 inverted microscope with a 40× LCACHN-iPC infinity objective (LCACHN40XIPC; numerical aperture, 0.55) connected to a SC50 camera (Olympus). Images were processed using Olympus Stream Image Analysis software (Olympus).

[14] = tested on: S. gordonii Challis Bt; experiment: Culture growth upon treatment with 100 nM antibiotic; type: cell-based, Streptococcus gordonii; parameters: key: “−” indicates not inhibited; “+” indicates mildly inhibited; “++” indicates inhibited
Method: as §1, §2, §3

[15] = tested on: S. sanguinis ATCC 10556; experiment: as above; type: cell-based, Streptococcus sanguinis; parameters: key to Inhibition By (S. sanguinis ATCC 10556): “−” indicates not inhibited; “+” indicates mildly inhibited; “++” indicates inhibited
Method: as §1, §2, §3

[16] = to a lower degree than for S. agalactiae

Substance | Inhibition By (S. bovis JB1) [1] | Inhibition By (S. pneumoniae D39) [2] | growth inhibition of S. mutans ([3]; 10 nM, 9-h growth assay) | Inhibition By (S. pyogenes NZ131) [4] | Inhibition By (S. oralis 108) [5] | Inhibition By (E. faecalis V583) [6] | Inhibition By (L. lactis ATCC 11454) [7] | Inhibition By (S. mutans UA159) [8] | Inhibition By (S. mitis CCUG 31611) [9] | Inhibition By (S. ferus DSM 20646) [10] | Inhibition By (S. agalactiae A909) [11] | growth inhibition of S. ferus ([12]; 10 nM) | growth inhibition of S. ferus ([12]; 100 nM) | chaining of S. mutans cells (chains greater than three cells in length) ([13]; 5 h after addition) | chaining of S. mutans cells (chains greater than three cells in length) ([13]; 7 h after addition) | Inhibition By (S. gordonii Challis Bt) [14] | Inhibition By (S. sanguinis ATCC 10556) [15] | further results
Tryglysin A (VNSWGKH; bridge (positions not given here); also: macrocyclic, tetrahydro[5,6]benzindole modification, places not given here) | + | ++ | Significant growth inhibition | − | ++ | − | − | ++ | ++ | ++ | ++ | Significant growth inhibition | complete inhibition | significantly increased | significantly increased | + | ++ | inhibitory activity against S. bovis compared with variant B [1, 16]: greater inhibitory activity; growth inhibition of S. mutans ([3]; 100 nM, 9-h growth assay): further inhibition; growth inhibition of S. mutans ([3]; 1 μM, 9-h growth assay): further inhibition; inhibitory activity against S. agalactiae compared with variant B [11]: greater inhibitory activity; inhibitory activity against S. sanguinis compared with variant B [15, 16]: greater inhibitory activity
Tryglysin B (VNCWGKH; bridge (positions not given here); also: macrocyclic, tetrahydro[5,6]benzindole modification, places not given here; listed as Streptococcus ferus) | + | ++ | some inhibition | − | ++ | − | − | ++ | ++ | ++ | + | minimal inhibition | compete inhibition | appeared to do the same | appeared to do the same | + | ++ | concentration required for significant growth inhibition of S. mutans ([3]; 9-h growth assay): at least 100 nM; concentration required for S. mutans to be completely inhibited ([3]; over the 9-h growth assay): 1 µM

Source: patent US12630585B2, “Antibacterial tryglysin agents” (The Trustees of Princeton University, priority 2020, dated 2026)
